These results are taken from PMC10064822, “The importance of including the C-terminal domain of PTP1B1-400 to identify potential antidiabetic inhibitors” (Journal of Enzyme Inhibition and Medicinal Chemistry, 2023).

The subject of one test is PTP1B1-321. The note with it: cited from earlier work.
The next test deals with PTP1B1-405. The note with it: cited from earlier work.
A further test concerns PTP1B1-393. The note with it: cited from earlier work.
The next test deals with PTP1B1-299. Also on record: method as in PMID 15475571. To be noted: PTP1B1-299 ref [20]; cited from earlier work.
For the next test, the system named is PTP1B1-301. The note with it: cited from earlier work.
The test system of the next test is PTP1B1-400. The note with it: cited from earlier work.
The target in test [1] is T1, hPTP1B1-400 (Homo sapiens, UniProt P18031).
T1 sequence (P18031 1-400): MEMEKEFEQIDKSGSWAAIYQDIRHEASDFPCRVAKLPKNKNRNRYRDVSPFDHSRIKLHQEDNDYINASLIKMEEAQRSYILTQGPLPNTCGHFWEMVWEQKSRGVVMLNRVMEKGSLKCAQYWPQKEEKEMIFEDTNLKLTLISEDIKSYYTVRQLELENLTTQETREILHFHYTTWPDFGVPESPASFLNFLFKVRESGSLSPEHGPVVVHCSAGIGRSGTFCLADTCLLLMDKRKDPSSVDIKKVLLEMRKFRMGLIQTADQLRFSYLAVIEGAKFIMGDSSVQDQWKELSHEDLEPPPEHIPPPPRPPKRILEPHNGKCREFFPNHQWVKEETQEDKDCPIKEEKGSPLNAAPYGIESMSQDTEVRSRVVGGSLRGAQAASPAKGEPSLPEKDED
In words: Enzyme kinetics of hPTP1B1-400 inhibition. Type of test: biochemical. The arrangement: the three purified hPTP1B constructs (hPTP1B1-285, hPTP1B1-321, and hPTP1B1-400); His-tag (N); made in house; host or cells: E. coli BL21 (DE3). The note with it: for Type of inhibition: hPTP1B1-400, pNPP 0.1-0.5 mM, best fit by R^2; for Vmax: fit of inhibition model. The protocol: The negative control was prepared with the enzyme and substrate in the absence of an inhibitor. The experiments were performed in triplicate. […] (2) y= Vmax x/Km + x,
Vmax is the maximum velocity, x is the […] concentration, and Km is the Michaelis constant.
(3) y= Vmax (x)/Km (1+(I/Ki))+x (4) y= Vmax (x)/((1+I)/(α Ki)) /x+Km ((1+I)/ Ki)/(1+I)/(α Ki)), (5) y= Vmax (x)/ x+(Km/(1+I)/Ki)
Vmax is the maximum velocity, x is the substrate concentration, I is the inhibitor concentration, Km is the Michaelis constant, Ki is the inhibition constant, and α=Vmax without inhibitor/Vmax with inhibitor.

A further test relates to PTP1B1-298. To be noted: cited from earlier work.
The next test deals with T2, hPTP1B1-321 (Homo sapiens, UniProt P18031).
T2 sequence (P18031 1-321): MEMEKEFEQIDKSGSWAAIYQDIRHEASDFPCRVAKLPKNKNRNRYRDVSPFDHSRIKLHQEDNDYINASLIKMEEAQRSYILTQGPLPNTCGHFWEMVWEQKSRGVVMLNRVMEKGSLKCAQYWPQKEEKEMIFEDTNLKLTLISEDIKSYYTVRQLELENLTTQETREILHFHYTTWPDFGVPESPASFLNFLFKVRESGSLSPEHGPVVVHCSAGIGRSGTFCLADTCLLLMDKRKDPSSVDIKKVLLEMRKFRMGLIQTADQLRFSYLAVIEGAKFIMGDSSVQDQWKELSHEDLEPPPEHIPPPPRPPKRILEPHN
In words: hPTP1B inhibition assay (pNPP), construct hPTP1B1-321. To be noted: read-out: Km of the substrate (pNPP); hPTP1B1-321, no inhibitor.

For test [2], the target named is T1, hPTP1B1-400. As to the kind of experiment: hPTP1B inhibition assay (pNPP), construct hPTP1B1-400. The note with it: read-out: Km of the substrate (pNPP); hPTP1B1-400, no inhibitor.
A further test deals with T3, hPTP1B1-285 (Homo sapiens, UniProt P18031).
T3 sequence (P18031 1-285): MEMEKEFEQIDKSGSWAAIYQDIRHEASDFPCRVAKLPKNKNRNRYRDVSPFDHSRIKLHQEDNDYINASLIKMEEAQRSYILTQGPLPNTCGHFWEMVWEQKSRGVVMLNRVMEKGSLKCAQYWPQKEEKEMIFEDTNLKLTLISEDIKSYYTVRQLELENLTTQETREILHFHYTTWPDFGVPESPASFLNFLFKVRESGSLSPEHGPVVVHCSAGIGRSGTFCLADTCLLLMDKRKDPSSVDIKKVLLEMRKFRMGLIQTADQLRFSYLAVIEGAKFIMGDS
In words: hPTP1B inhibition assay (pNPP), construct hPTP1B1-285. To be noted: read-out: Km of the substrate (pNPP); hPTP1B1-285, no inhibitor.

Like-named read-outs stand apart in the source and are kept apart here.

Usually IC50 stands for the point on the concentration scale where inhibition reaches its midpoint. In general, Ki refers to a measure of affinity in units of concentration, obtained from inhibition or displacement. For `C[C@@H]1CC[C@]2(C(=O)O)CC[C@]3(C)C(=CC[C@@H]4[C@@]5(C)C[C@H](O)[C@H](O)C(C)(C)[C@@H]5CC[C@]43C)[C@@H]2[C@]1(C)O` [2β-hydroxy pomolic acid], in the test on PTP1B1-321 (PTP1B1-321 ref [49]), the IC50 is 5.88 µM, the Inhibition type entry is given as “Mixed-competitive” and the Ki was 7.56 µM.
A word on the Kd: it is the free concentration of one partner at which half of the binding sites on the other are occupied at equilibrium, for simple one-to-one binding. Take `COC(=O)CC[C@@H](C)[C@H]1CC[C@H]2[C@@H]3[C@H](O)C[C@H]4C[C@H](NCCCCNCc5ccccn5)CC[C@]4(C)[C@H]3CC[C@]12C` [DPM-1001]: in the test with PTP1B1-405 (PTP1B1-405 ref [48]), the half-maximal inhibitory concentration (IC50) is 0.1 µM, the Inhibition type entry is given as “Non-competitive” and the Kd was 0.075 µM.
For `Cc1cc(-c2c3ccccc3c(Br)c3sc(C)c(C)c23)cc(C)c1O[C@H](Cc1ccccc1)C(=O)O` [Ertiprotafib], the Inhibition type result with PTP1B1-393 (PTP1B1-393 ref [18]), with PTP1B1-299 and with PTP1B1-301 (PTP1B1-301 ref [18]) was “Nonclassic kinetics: Aggregation” each time. In the test on PTP1B1-299, the IC50 was > 20 µM.
In the case of `Cc1ccc(C(=O)Nc2ccc(S(=O)(=O)O)c3cc(S(=O)(=O)O)cc(S(=O)(=O)O)c23)cc1NC(=O)c1cccc(NC(=O)Nc2cccc(C(=O)Nc3cc(C(=O)Nc4ccc(S(=O)(=O)O)c5cc(S(=O)(=O)O)cc(S(=O)(=O)O)c45)ccc3C)c2)c1` [SUR, suramin], in the test on PTP1B1-400 (PTP1B1-400 ref [28]), the IC50 was 4.1 µM, the Inhibition type result is “Competitive” and the inhibitory constant (Ki) was 7.1 µM. In the test with PTP1B1-321 (PTP1B1-321 ref [40], [50]), the IC50 is 11 µM, the Inhibition type result is listed as “Competitive” and the inhibition constant (Ki) is 4 µM. For the same compound, the Type of inhibition entry on hPTP1B1-400 [1] is on record as “Competitive”. The Vmax on hPTP1B1-400 [1] (hPTP1B1-400, pNPP substrate) turned out to be 0.64 ± 0.02.
Turning to `C[C@H]1[C@H](C)CC[C@]2(C(=O)O)CC[C@]3(C)C(=CC[C@@H]4[C@@]5(C)CC[C@H](O)C(C)(C)[C@@H]5CC[C@]43C)[C@H]12` [UA, ursolic acid], the IC50 with PTP1B1-298 (PTP1B1-298 ref [44]) is 7.1 µM; in the test with PTP1B1-400 (PTP1B1-400 ref [28]), 5.6 µM; with PTP1B1-321 (PTP1B1-321 ref [45]) it was 6.6 µM; with PTP1B1-321 (PTP1B1-321 ref [46]), 3.08 µM. In addition, the Inhibition type entry in the test on PTP1B1-298 (PTP1B1-298 ref [44]) was “Non-competitive”; in the test on PTP1B1-400 (PTP1B1-400 ref [28]), “Non-competitive”; in the test with PTP1B1-321 (PTP1B1-321 ref [45]), “Competitive”; with PTP1B1-321 (PTP1B1-321 ref [46]) it was “Competitive”. The Ki was 25.8 µM at PTP1B1-298 (PTP1B1-298 ref [44]) and 8.9 µM at PTP1B1-400 (PTP1B1-400 ref [28]). Besides, the Type of inhibition entry on hPTP1B1-400 [1] is on record as “Mixed”. Besides, the Vmax on hPTP1B1-400 [1] (hPTP1B1-400, pNPP substrate) is reported as 0.63 ± 0.08.
In the case of `[Na+].[Na+].[Na+].[O]=[V]([O-])([O-])[O-]` [SO, sodium orthovanadate], in the test on PTP1B1-321 (PTP1B1-321 ref [39–42]), the 50% inhibitory concentration (IC50) is 1.38 µM, the Inhibition type result is recorded as “Competitive” and the inhibition constant Ki is 0.38 µM. Further, at hPTP1B1-400 [1], the Type of inhibition result is reported as “Uncompetitive”. Also, the Vmax on hPTP1B1-400 [1] (hPTP1B1-400, pNPP substrate) is on record as 3.20 ± 0.80.
`CC1CCC2(C(=O)O)CCC3(C)C(=CCC4C5(C)C(O)C(=O)C(O)C(C)(C)C5CCC43C)C2C1(C)O` (stereo not drawn) [1β,3α,19α-trihydroxy-2-oxours-12-en-28-oic acid]: in the test on PTP1B1-321 (PTP1B1-321 ref [49]), the IC50 is 13.2 µM, the Inhibition type entry was “Non-competitive” and the inhibition constant (Ki) was 10.8 µM.
One may read the Km as the concentration of substrate that gives half-maximal velocity. Turning to `O=[N+]([O-])c1ccc(OP(=O)(O)O)cc1` [pNPP, p-nitrophenyl phosphate], the values for the Km on hPTP1B1-321, at hPTP1B1-400 [2] and on hPTP1B1-285 were 15.7 ± 1.68 mM, 2.03 ± 0.11 mM and 16.4 ± 1.55 mM, respectively.
As for 2-(hydroxy-phenoxy) acetic acid, in the test on PTP1B1-321 (PTP1B1-321 ref [38]), the Inhibition type entry is recorded as “Competitive” and the Ki was 9 µM.
With `CC1=C(O)C(=O)C=C2C1=CC=C1[C@@]2(C)CC[C@@]2(C)[C@@H]3C[C@](C)(C(=O)O)CC[C@]3(C)CC[C@]12C` [Celastrol], in the test on PTP1B1-393 (PTP1B1-393 ref [36]), the half-maximal inhibitory concentration (IC50) was 2.1 µM and the Inhibition type result was “Non-competitive”. In addition, in the test with PTP1B1-298 (PTP1B1-298 ref [36]), the 50% inhibitory concentration (IC50) was 4.8 µM, the Inhibition type result is listed as “Non-competitive” and the Kd was 6.1 µM.
As to `O=C(/C=C/c1ccc(O)c(O)c1)O[C@@H]1C[C@](O)(C(=O)O)C[C@@H](O)[C@H]1O` [CGA, chlorogenic acid], in the test with PTP1B1-321 (PTP1B1-321 ref [39]), the IC50 is 9.82 µM and the Inhibition type result is “Non-competitive”. Further, in the test with PTP1B1-301 (PTP1B1-301 ref [47]), the Inhibition type entry is on record as “Non-competitive” and the inhibitory constant (Ki) is 8200 µM.
Consider `CC(C)[C@@H](CC[C@@H](C)[C@H]1CC[C@H]2[C@@H]3[C@H](O)C[C@H]4C[C@@H](NCCCNCCCCNCCCN)CC[C@]4(C)[C@H]3CC[C@]12C)OS(=O)(=O)O` [Trodusquemine], for which the 50% inhibitory concentration (IC50) with PTP1B1-400 (PTP1B1-400 ref [43]) was 1 µM. Further, the Inhibition type result with PTP1B1-400 (PTP1B1-400 ref [43]), with PTP1B1-321 (PTP1B1-321 ref [7]) and in the test with PTP1B1-405 (PTP1B1-405 ref [7]) was “Non-competitive” each time.
On to `Oc1cc(Cc2cc(O)c(O)c(Br)c2Cc2cc(O)c(O)c(Br)c2Br)c(Br)c(Br)c1O` [BDB, 3-bromo-4,5-bis(2,3-dibromo-4,5-dihydroxybenzyl)-1,2-benzenediol], for which, in the test on PTP1B1-321 (PTP1B1-321 ref [21]), the concentration for half-maximal inhibition (IC50) is 1.86 µM and the Inhibition type entry is “Competitive”.
As to `COc1ccc(-n2ncc3c2C(C)(C)[C@@H]2CC[C@]4(C)[C@H](C(=O)C=C5[C@@H]6C[C@@](C)(C(=O)O)CC[C@]6(C)CC[C@]54C)[C@@]2(C)C3)cc1` [5 b], the Type of inhibition entry on hPTP1B1-400 [1] was “Uncompetitive”. On hPTP1B1-400 [1] (hPTP1B1-400, pNPP substrate), the inhibition constant (Ki) is 3.42 ± 0.2 µM and the Vmax is given as 0.87 ± 0.03.
Regarding `O=C(/C=C/c1ccc(O)c(O)c1)O[C@@H](C(=O)O)[C@@H](OC(=O)/C=C/c1ccc(O)c(O)c1)C(=O)O` [Cichoric acid (CHA), Cichoric acid], in the test on PTP1B1-321 (PTP1B1-321 ref [39]), the Inhibition type result is “Non-competitive”. Moreover, in the test on PTP1B1-301 (PTP1B1-301 ref [47]), the Inhibition type entry is listed as “Competitive” and the inhibition constant Ki was 1400 µM.
Turning to `O=C(O)C(=O)Nc1ccccc1C(=O)O` [2-(Oxaloamino) benzoic acid (OBA), 2-(oxaloamino) benzoic acid], in the test with PTP1B1-321 (PTP1B1-321 ref [37]), the Inhibition type entry is recorded as “Competitive” and the Ki was 200 µM.
